# Where “and” joins values, the source holds several entries; their conditions need not be identical. Equal entries are not always repeated. Where two headings read alike, the source gives them in different places.
# Assays:
# [1] = target: T1, human liver cytosolic AOX1 (Homo sapiens, UniProt Q06278); assay type: biochemical; parameters: Enzymatic reaction was initiated by adding human liver cytosol (100 μg); tissue Corning, Inc. (Gentest brand) 452115; host or cells: human liver cytosol, pool of 150 donors; details: 5 mM agent, 10 min; erlotinib 1.5 μM, analogs 2 μM
# T1 sequence (Q06278 1-1338): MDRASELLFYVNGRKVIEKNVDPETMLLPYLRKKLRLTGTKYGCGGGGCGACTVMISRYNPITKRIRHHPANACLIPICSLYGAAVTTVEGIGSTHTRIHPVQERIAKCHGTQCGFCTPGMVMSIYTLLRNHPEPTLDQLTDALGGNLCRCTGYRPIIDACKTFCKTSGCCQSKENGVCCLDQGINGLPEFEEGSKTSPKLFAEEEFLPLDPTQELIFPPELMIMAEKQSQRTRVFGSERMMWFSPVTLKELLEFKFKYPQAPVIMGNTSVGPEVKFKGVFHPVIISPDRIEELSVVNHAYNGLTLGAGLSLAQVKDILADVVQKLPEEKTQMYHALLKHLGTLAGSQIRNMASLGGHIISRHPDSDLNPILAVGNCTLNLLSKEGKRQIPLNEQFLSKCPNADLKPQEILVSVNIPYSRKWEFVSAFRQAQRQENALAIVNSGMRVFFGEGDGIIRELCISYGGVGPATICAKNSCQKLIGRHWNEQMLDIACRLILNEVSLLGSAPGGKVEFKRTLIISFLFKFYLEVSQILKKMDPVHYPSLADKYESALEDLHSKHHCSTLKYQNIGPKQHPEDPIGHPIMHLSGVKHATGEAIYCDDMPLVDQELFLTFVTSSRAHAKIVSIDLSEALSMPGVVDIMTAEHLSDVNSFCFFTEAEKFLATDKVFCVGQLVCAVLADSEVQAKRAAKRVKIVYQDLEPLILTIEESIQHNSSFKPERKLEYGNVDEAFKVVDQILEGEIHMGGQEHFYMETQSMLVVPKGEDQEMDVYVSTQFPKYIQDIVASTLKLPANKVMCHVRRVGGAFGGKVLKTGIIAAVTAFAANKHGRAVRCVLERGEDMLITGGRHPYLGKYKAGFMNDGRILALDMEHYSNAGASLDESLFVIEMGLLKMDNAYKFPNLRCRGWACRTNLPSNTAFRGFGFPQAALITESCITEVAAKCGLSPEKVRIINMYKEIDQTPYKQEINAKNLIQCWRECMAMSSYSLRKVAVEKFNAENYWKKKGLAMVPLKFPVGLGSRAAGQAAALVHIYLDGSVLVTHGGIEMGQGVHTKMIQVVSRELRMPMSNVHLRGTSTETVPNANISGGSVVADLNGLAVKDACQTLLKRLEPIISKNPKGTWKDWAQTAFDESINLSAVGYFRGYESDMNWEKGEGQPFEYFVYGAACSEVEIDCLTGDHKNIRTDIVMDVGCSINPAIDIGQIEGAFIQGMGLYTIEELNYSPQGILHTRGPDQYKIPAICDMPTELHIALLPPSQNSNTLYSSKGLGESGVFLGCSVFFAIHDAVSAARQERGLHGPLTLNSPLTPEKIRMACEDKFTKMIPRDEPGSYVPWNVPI
# Description: Potassium ferricyanide (5 mM; oxidizing agent), sodium dithionite (5 mM; reducing agent), or potassium phosphate buffer (vehicle for oxidizing/reducing agent) was preincubated with human liver cytosol (200 μg protein) in a total volume of 100 μL at 37 °C for 10 minutes. […] After a 0 or 6-minute preincubation duration, an aliquot (10 μL) of the secondary incubation mixture was transferred to a prewarmed tertiary incubation mixture (total volume of 200 μL) containing potassium phosphate buffer and carbazeran (15 μM), which yielded a 20-fold dilution of the secondary incubation mixture. The tertiary incubation mixture was incubated for 5 minutes at 37 °C before the enzymatic reaction was terminated with 200 μL of ice-cold acetonitrile containing carbazeran-d4 (2.5 nM final concentration; internal standard for 4-oxo-carbazeran). The residual AOX1 enzyme activity was determined by the carbazeran 4-oxidation assay.
# [2] = Pharmacokinetics study in mice: erlotinib pretreatment, carbazeran and 4-oxo-carbazeran; assay type: in vivo, BALB/c mice; details: erlotinib 100 mg/kg p.o.
# Description: BALB/c mice (male, ∼8 weeks old) were purchased and housed at the Biological Resource Centre, Agency for Science, Technology and Research (A∗STAR). The experimental protocol was approved by the A∗STAR Institutional Review Board. […] Blood (12.5 μL) was drawn from the tail vein (with a needle prick) at various times (0.25, 0.5, 0.75, 1, 2, 3, 4, 6, and 8 hours) after carbazeran dosing. The blood samples were diluted 2 times with 12.5 μL of water. Acetonitrile containing the internal standard (carbazeran-d4, 4 nM in 75 μL acetonitrile and 3 nM in final sample volume of 100 μL) was added to the blood samples to precipitate proteins. […] Blank and standard calibration samples were prepared from control mice that were not treated with any chemicals. Pharmacokinetic data were analyzed by noncompartmental analysis using Phoenix WinNonlin 6.3 (Certara).
# At the end of the last blood collection (8 hour post-carbazeran dosing), the mice were sacrificed. […] The tissue samples were homogenized, and a 12.5 μL aliquot of the homogenate was diluted with an equal volume of water. Acetonitrile containing the internal standard (carbazeran-d4, 4 nM in 75 μL acetonitrile and 3 nM in final sample volume of 100 μL) was added to the diluted tissue samples (25 μL) to precipitate the proteins.
# [3] = clinical phase I study; cited from earlier work
# [4] = cancer patients, cited from earlier work; for Cmax: 150 mg/day erlotinib
# AOX1 (rat liver cytosol) = test: Inactivation of carbazeran 4-oxidation by rat liver cytosol; assay type: biochemical; details: 10 μM (raloxifene 0.02 μM), 30-minute preincubation
# Description: Carbazeran 4-oxidation and O^6-benzylguanine 8-oxidation were deployed as AOX1-selective catalytic markers.[27] The assay conditions (amount of cytosolic protein, incubation time, and substrate concentration) for carbazeran 4-oxidation catalyzed by human recombinant AOX1 and human/rat/mouse liver cytosols were optimized previously.[7]^,[25]
# Enzymatic reaction was initiated by adding human liver cytosol (100 μg). After the specified preincubation duration, an aliquot (10 μL) of the preincubation mixture was transferred to 190 μL of a prewarmed (for 3 minutes at 37 °C) secondary incubation mixture (total volume of 200 μL) containing potassium phosphate buffer and carbazeran (15 μM) or O^6-benzylguanine (150 μM), which yielded a 20-fold dilution of the primary incubation mixture. The secondary incubation mixture was incubated for 5 minutes at 37 °C before the enzymatic reaction was terminated with 200 μL of ice-cold acetonitrile containing carbazeran-d4 (2.5 nM final concentration; internal standard for 4-oxo-carbazeran) or tolbutamide (25 nM final concentration; internal standard for 8-oxo-O^6-benzylguanine). Each sample was immediately mixed by vortex, placed on ice, centrifuged at 16,000g for 15 minutes at 4 °C and stored at –30 °C until ultra-high performance liquid chromatography–tandem mass spectrometry (UPLC-MS/MS) analysis. For enzyme inactivation assays involving rat and mouse liver cytosol and recombinant AOX1 assays, the experimental conditions were similar to those of human liver cytosol, except that the amount of cytosolic protein was 200 μg (rat) and 150 μg (mouse), respectively, and the incubation time of the secondary incubation mixture was 60 minutes. For the recombinant AOX1 enzyme assay, the amount of enzyme was 100 μg, the incubation time of the secondary incubation mixture was 15 minutes, and the total volume of the primary and secondary incubation mixtures was reduced to 100 μL.
# An aliquot (10 μL) of the primary incubation mixture was transferred to a secondary incubation mixture containing carbazeran (15 μM) and incubated for (A) 180, (B) 5, or (C, D) 120 minutes.
structure (smiles),measurement,setting,value
"C#Cc1cccc(Nc2nc(C)nc3cc(OCCOC)c(OCCOC)cc23)c1 [2-Methylerlotinib, 2-methylerlotinib]",effect of preincubating cytosol with potassium ferricyanide or sodium dithionite on AOX1 inactivation,[1],neither sodium dithionite nor potassium ferricyanide affected
C#Cc1cccc(Nc2ncnc3cc(OCCOC)c(OCCOC)cc23)c1 [Erlotinib],concentration of 4-oxo-carbazeran metabolite in liver and kidneys,[2]; 8 hours after carbazeran,decreased the concentration
same,concentration of carbazeran in liver and kidneys,[2]; 8 hours after carbazeran,increased the concentration
same,concentration of 4-oxo-carbazeran metabolite in blood vs vehicle-treated control,[2]; all time points to 8 h,far lesser concentration
same,concentration of carbazeran in blood vs vehicle-treated control,[2]; all time points to 8 h,greater concentration
same,effect on plasma concentration of OSI-930,[3],increase
same,effect of preincubating cytosol with potassium ferricyanide or sodium dithionite on AOX1 inactivation,[1],neither sodium dithionite nor potassium ferricyanide affected
same,Cmax,[4]; day 28,5.39 µM
same,Cmax,"[4]; erlotinib in plasma, day 24 to day 28",4.41 to 5.39 µM
"C#Cc1cccc(Nc2ncnc3cc(OCCOC)c(OCCO)cc23)c1 [O-Desmethylerlotinib, O-desmethylerlotinib]",decrease in carbazeran 4-oxidation,AOX1 (rat liver cytosol),92%–97%
"C#Cc1cccc(Nc2ncnc3cc(OCCO)c(OCCO)cc23)c1 [O-Didesmethylerlotinib, O-didesmethylerlotinib]",decrease in carbazeran 4-oxidation,AOX1 (rat liver cytosol),92%–97%
same,C24h,[4]; 150 mg/day erlotinib for 1–2 months,0.86–4.2 ng/mL and 2.35–11.49 nM
